Legend:
[1] = test system: LPS induced IL-6 production; experiment: LPS (lipopolysaccharide) induced IL-6 production mouse assay; settings: 30 mg/kg oral, 1 h before LPS 2.5 mg/kg i.p.; serum IL-6 2 h after LPS; p<0.05
Protocol: Severe combined immunodeficient female mice (5 per group) received an intraperitoneal challenge of lipopolysaccharide (2.5 mg/kg, L2630 E. coli 0111:B4) one hour after oral administration of compounds. Mice were euthanized 2 hours after lipopolysaccharide injection, blood was removed by cardiac puncture, and then the serum harvested from the blood samples was frozen at −80° C. On the day of the assay the serum samples were brought to room temperature and then diluted 1:20 in phosphate-buffered saline containing 2% bovine serum albumin. Interleukin-6 measurements were performed using a cytokine assay from Meso Scale Discovery (Gaithersburg, Md.) for mouse serum analysis according to the manufacturer's protocol and read on a SECTOR Imager 6000 (Meso Scale Discovery, Gaithersburg, Md.) instrument. Statistical analysis was performed using Prism software (version 5.0) incorporating Dunnett's one way ANOVA. The IL-6 mean and standard deviation of the group of vehicle treated animals were compared with the IL-6 mean and standard deviation of the group treated with drug. A p value <0.05 means that there is less than a 5% probability that the mean values in the two groups are equal.

D54MG = experiment: Proliferation panel assay: D54MG; type: cell-based; settings: 120 h; D54MG (Glioblastoma); 5 days, Cell Titer Glo; read-out: Cellular Proliferation EC50
HPAC = experiment: Proliferation panel assay: HPAC; type: cell-based; settings: Homo sapiens, 120 h; HPAC (Pancreas); 5 days, Cell Titer Glo; read-out: Cellular Proliferation EC50
H460 = experiment: Proliferation panel assay: H460; type: cell-based; settings: Homo sapiens, NCI-H460, 120 h; H460 (NSCLC); 5 days, Cell Titer Glo; read-out: Cellular Proliferation EC50
Ramos = experiment: Proliferation panel assay: Ramos; type: cell-based; settings: Homo sapiens, 120 h; Ramos (NHL); 5 days, Cell Titer Glo; read-out: Cellular Proliferation EC50
[2] = test system: breast cancer cell line MX-1; experiment: MX-1 cell line proliferation assay (3-day); type: cell-based; settings: Homo sapiens, MX1; MX-1 cells, 72 h incubation, Cell Titer Glo; read-out: Cellular proliferation: EC50
Outline: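 EC50 derived by sigmoidal fitting of Cell Titer Glo signal relative to DMSO controls. Compound, 3 μM down to 0.0001 μM final in 3-fold steps, was added to adhered MX-1 cells (5000/well, RPMI + 10% FBS) for a 3-day incubation at 37° C.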

Compound | Inhibition of LPS induced IL-6 production, % inhibition [1] | EC50 (D54MG) [nM] | EC50 (HPAC) [nM] | EC50 (H460) [nM] | EC50 (Ramos) [nM] | EC50 [2] [nM]
Cc1cc(-c2cc(NS(C)(=O)=O)ccc2Oc2ccccc2)c[nH]c1=O [Example 261, N-[3-(5-methyl-6-oxo-1,6-dihydropyridin-3-yl)-4-phenoxyphenyl]methanesulfonamide] | 42.2 @ 30 mg/kg % | 338 | 500 | 310 | 390 | 387
Cn1cc(-c2cc(NS(C)(=O)=O)ccc2Oc2ccccc2)ccc1=O [Example 224, N-[3-(1-methyl-6-oxo-1,6-dihydropyridin-3-yl)-4-phenoxyphenyl]methanesulfonamide] |  | 423 | 380 | 110 | 370 | 208

— patent US9561231B2 (AbbVie Inc., priority 2012, dated 2017)
